Assays:
[1] = test system: type 1 diabetes patients; conditions: single course; after onset of type 1 diabetes, some patients; cited from earlier work
[2] = test system: streptozocin-induced diabetic mouse; assay: Streptozocin-induced diabetic mouse (Example 6); type: in vivo; conditions: streptozocin mice; for mean reduction in glucose: from baseline, placebo 9.5%
Source text: The streptozocin-induced diabetic mouse is a convenient animal model of type 1 diabetes because researchers are able to chemically induce diabetes under controlled conditions rather than waiting for mice to become diabetic naturally or by forcing diabetes through prescribed obesity. Based on experience with the streptozocin model in the rat, a high degree of variability was anticipated for the induction of the disease in mice and therefore 60 mice were induced with streptozocin. Mice were injected intraperitoneally with streptozocin at 40 mg/kg in citrate buffer, pH4.5, on 5 consecutive days in an attempt to render them diabetic. A mouse was considered diabetic once its blood glucose level was greater than 16.7 mmol/L (300 mg/dL) for at least 1 week. If the blood glucose level of any animal became too high (>400 mg/dL) the animal was treated with an effective amount of insulin. In this example, 60 male mice, ranging from 6-8 weeks old at the outset of the study, were treated with streptozocin as described above. Those mice that were declared diabetic were then used to test the effectiveness of HIP2 as compared to other test agents.
Animals were group housed in compliance with the National Research Council “Guide for the Care and Use of Laboratory Animals”. The animals received 12 hours light/12 hours dark, except when room lights were turned on during the dark cycle to accommodate study procedures. Room temperature was maintained between 18 to 26° C. at all times. Relative humidity was maintained between 30-70% at all times. All animals were given access to Harlan Teklad Rodent Diet or equivalent and tap water via water bottle. Animals were allowed to acclimate to their new environment for a minimum of 7 days prior to first dosing.
Mice were randomly divided and assigned to study groups. Each study group was assigned treatment with one of 5 test agents (see Treatment section below). Prior to being treated, each mouse was tested for diabetes via monitoring their blood glucose levels. After confirmation that the mice were diabetic (blood glucose levels greater than 16.7 mmol/L (300 mg/dL) for at least 1 week) the mice were dosed with their respective test agent.
Each study group received doses of one of the following test agents: HIP2, HIP1, HIP, Hamster INGAP (SEQ ID NO:1) or isotonic saline “Vehicle” (0.9% NaCl) (negative control). Mice were given doses of their respective agent interperitoneally twice daily (am and pm, +/−2 hours for each administration) at 250 ug/dose, in 100 ul dose volume, for 28 consecutive days. Test agents were prepared once daily by dissolving the appropriate amount of test agent in isotonic saline to result in a 2.5 mg/ml solution. Blood glucose levels were tested every 3 days, at the same time each day, using a glucometer. If the blood glucose level in any animal became too high, the animal was treated with insulin. At the end of the treatment, all surviving animals were euthanized by CO2 asphyxiation following terminal blood collection. Blood samples were collected under CO2 cardiocentesis. The plasma was separated and then frozen at −80° C. For histological analysis, the pancreas from each mouse was removed and snap-frozen.
Blood glucose levels are measured every 3 days and tracked to evaluate differences in glucose levels.

[3] = test system: diabetic patients; conditions: cited from earlier work
[4] = doses up to 10,000 IU/day; cited from earlier work
[5] = test system: human pancreatic progenitor cells; assay: Inverted microscopy of human ductal/progenitor tissue cultures (Example 4); type: cell-based
[6] = test system: pancreatic islets of treated mice; assay: Quantitative immunohistochemistry image analysis of mouse pancreata (Example 7); type: in vivo
Source text: The islet mass of the placebo group was 854,362 μm (2) compared with 2,161,782 μm (2) in HIP-treated mice.
Islet size was not different between HIP treated and control group, whereas, islet number and mass was increased.

Molecule: hOKT3gamma1 (Ala-Ala): anti-CD3 monoclonal antibody
- duration of improvement in C-peptide responses and clinical parameters [1]: at least 2 years

Molecule: hamster INGAP: non-human islet neogenesis associated peptide, hamster sequence, positive control (SEQ ID NO:1) (IGLHDPSHGTLPNGS; Fragment of naturally occurring hamster INGAP protein)
- overall insulin requirements lower compared to controls [2]: 14%
- mean reduction in glucose [2]: 20%
- patients with a >50% increase in GAD65 antibody titers ([3]; 300 mg/day, Phase II): 22 % of the patients
- C-peptide secretion ([3]; 600 mg/day): increase in C-peptide secretion
- tolerability ([3]; Phase I and II trials): well tolerated
- drop out due to injection site reactions ([3]; Phase II trial, diabetic patients): high drop out
- effectiveness ([3]; Phase II trial): Little effectiveness
- hemoglobin A1C ([3]; type 2 diabetes patients): fell

Molecule: C=C1CC[C@H](O)C/C1=C/C=C1\CCC[C@]2(C)[C@@H]([C@H](C)CCCC(C)C)CC[C@@H]12 [Vitamin D, cholecalciferol]
- adverse effects [4]: No adverse effects

Molecule: HIP: Human proIslet Peptide, 15-mer human counterpart of the hamster INGAP peptide (SEQ ID NO:2) (IGLHDPTQGTEPNGE; Fragment of naturally occurring human REG3 protein)
- overall insulin requirements lower compared to controls [2]: 32%
- insulin requirements (and rate of decrease) ([2]; compared to placebo): significant reduction
- mean reduction in glucose [2]: 26.9%
- morphology of progenitor tissue cultures (FIG. 7A) ([5]; day 2 of treatment (day 12)): forming a nidus of new insulin producing islets
- morphology of progenitor tissue cultures (FIG. 7B) ([5]; day 6 of treatment (day 18)): forming insulin producing islet like structure
- islet size vs placebo/control ([6]; mouse, in vivo): not statistically different
- number of islets counted greater than placebo group ([6]; p=0.022): 62%
- total islet mass greater than placebo group ([6]; p=0.05): 153%
- islets counted ([6]; placebo 280): 454
- islet mass ([6]; placebo 854,362): 2,161,782 μm (2)
- total islet mass (qualitative) ([6]; vs control): increased
- total islet number (qualitative) ([6]; vs control): increased

From patent publication US8785400B2, “Methods and compositions relating to islet cell neogenesis” (CureDM Group Holdings, LLC, priority 2006, dated 2014)
